These results are taken from article PMC3762901, “Cyclic Peptide Inhibitors of the β-Sliding Clamp in Staphylococcus aureus” (PLoS ONE, 2013).

Values joined by “and” are separate entries in the source; they are usually repeats but may differ in a detail not shown here. Identical values can stand only once. Ends that are not written are not given here. Peptide text beside a SMILES is read from it.

In test [1] the target is DnaN (β), β-sliding clamp of S. aureus (S. aureus) (UniProt P0A024).
Test [2] deals with S. epidermidis. In kind it is cell-based, Staphylococcus epidermidis. On the procedure: (§1) The antibacterial activities of the purified peptides were determined against Staphylococcus epidermidis and S. aureus. […] We can conclude that some but not all of the identified cyclic peptides are able to penetrate the bacterial membrane to find their intracellular target. […] As expected none of the peptides isolated had any activity towards E. coli, whereas they inhibited growth of B. subtilis, another gram positive bacterium (data not shown).

In test [3] the test system is S. aureus DnaN-DnaN interaction (β-sliding clamp dimerization). Kind of test: Bacterial two-hybrid (BTH) β-galactosidase assay of DnaN-DnaN interaction. In kind it is cell-based, Staphylococcus aureus. Particulars: for Ability to interfere with DnaN dimerization after reduction to 8-mers: cyclic 8-mers with the sequence SXXXXXXG expressed intracellularly, not shown; for Reduction of DnaN-DnaN interaction when produced intracellularly: cyclic peptides expressed in E. coli, Fig. 3. On the procedure: The library was screened for peptides able to disrupt DnaN-DnaN interaction of the Staphylococcus replisome by transforming into the R-BTH strain SC01 containing interacting Cya fusion proteins. Cells were plated on plates containing 5-FOA and 1 mM IPTG to induce expression of the cyclic peptides. We readily identified clones where expressed peptides restored cell viability in the presence of 5-FOA (Fig. 3A). To initially assess the activity of the selected peptides we determined their ability to reduce DnaN-DnaN interaction in the original two hybrid system.
Figure 3 Identification of peptides that interfere with DnaN-DnaN interaction. […] After screening of our SICLOPPS library, growth was restored in 7 clones.A. (B) The cyclic peptides identified in (A) were expressed in the original bacterial two-hybrid strain (BTH101) containing T18:DnaN and DnaN:T25 fusion plasmids and the level of β-galactosidase activity was determined as described in Materials and Methods.
Bacterial two-hybrid assay was performed as described previously. Derivatives of plasmids pUT18 and p25N encoding replication proteins were constructed by cloning PCR-amplified DNA fragments in frame with the T25 and T18 fragments of cya. T18 and T25 fusions were transformed into BTH101, and plated on plates containing 40 μg/ml of 5-bromo-4-chloro-indolyl-β-D-galactoside (X-gal) and relevant antibiotics. […] For β-galactosidase assays, cells were grown exponentially at 30°C in LB supplemented with 0.5 mM IPTG, and β-galactosidase activities were measured as described by.

Test [4] has as its system S. aureus. The format is cell-based, Staphylococcus aureus. On the procedure:
as §1

The subject of test [5] is S. aureus or S. epidermidis. The format is cell-based. The text has this: In agreement with this none of these peptides were particularly hydrophobic or cationic (Table 4). […] This could be tested by construction of deletion mutants lacking one or more of these permeases. We synthesized and tested linear counterparts of the active peptides III-5, III-6 and III-7. […] Increased antibacterial activity of peptides due to circularization has previously been described.

Chain of UniProt P0A024 (P0A024 whole entry): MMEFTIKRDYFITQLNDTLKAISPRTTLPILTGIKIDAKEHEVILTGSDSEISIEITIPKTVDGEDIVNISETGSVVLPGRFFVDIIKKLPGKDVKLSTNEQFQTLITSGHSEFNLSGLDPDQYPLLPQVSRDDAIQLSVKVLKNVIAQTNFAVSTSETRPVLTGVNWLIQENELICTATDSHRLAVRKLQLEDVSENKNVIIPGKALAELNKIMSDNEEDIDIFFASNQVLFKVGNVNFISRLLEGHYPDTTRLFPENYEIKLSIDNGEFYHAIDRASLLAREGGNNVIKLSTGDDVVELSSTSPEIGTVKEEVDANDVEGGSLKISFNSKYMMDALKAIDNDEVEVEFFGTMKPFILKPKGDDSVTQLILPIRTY

As for “purified cyclic peptide III-5 (CRVFLCGC)”, the MIC for cyclic peptide, determined for S. aureus in test [1] is 50 μg/ml and 57 μM.
As to “cyclo(CRCWLFVL) (cysteine pairing not given here) [IV-N8, cyclic 8-mer CRCWLFVL synthesized via FMOC SPPS]”, in test [2] (cyclic 8-mer CRXXXXXX, determined for S. epidermidis, highest concentration tested 100 μg/ml), the “MIC for cyclic peptide” value was > 100 µg/mL. The “Ability to interfere with DnaN dimerization after reduction to 8-mers” value in test [3] is reported as “retaining their ability to interfere with DnaN dimerization”.
For the molecule CRGHVWVD [linear III-7], the “MIC for linear peptide” value in test [4] was > 560 µg/mL.
With “purified cyclic peptide III-6 (CRSQGLFK)”, the MIC for cyclic peptide, determined for S. aureus in test [1] is 50 μg/ml and 54 μM.
Regarding `CC(C)C[C@@H]1NC(=O)[C@H](CO)NC(=O)[C@H](CCC(=O)O)NC(=O)[C@H](Cc2ccccc2)NC(=O)[C@H]([C@@H](C)O)NC(=O)[C@H](CO)NC(=O)[C@H](CCCNC(=N)N)NC(=O)[C@H](CS)NC1=O` [III-8] (cyclo(CRSTFESL)), in test [4], the “MIC for cyclic peptide” value was > 100 µg/mL. Also, in test [3], the “Reduction of DnaN-DnaN interaction when produced intracellularly” value is “efficient in reducing DnaN-DnaN interaction”.
For the molecule `CC(C)[C@@H]1NC(=O)[C@H](Cc2c[nH]c3ccccc23)NC(=O)[C@H](C(C)C)NC(=O)[C@H](Cc2c[nH]cn2)NC(=O)CNC(=O)[C@H](CCCNC(=N)N)NC(=O)[C@H](CS)NC(=O)[C@H](CC(=O)O)NC1=O` [III-7] (cyclo(CRGHVWVD)), in test [3], the “Ability to interfere with DnaN dimerization after reduction to 8-mers” value is on record as “retaining their ability to interfere with DnaN dimerization” and the “Reduction of DnaN-DnaN interaction when produced intracellularly” value was “efficient in reducing DnaN-DnaN interaction”. Besides, the “MIC values (range given for the three active cyclic peptides)” value in test [5] is 20−50 μg/ml.
For the molecule `CC(C)C[C@H](NC(=O)[C@H](Cc1ccccc1)NC(=O)[C@@H](NC(=O)[C@H](CCCNC(=N)N)NC(=O)[C@@H](N)CS)C(C)C)C(=O)N[C@@H](CS)C(=O)NCC(=O)N[C@@H](CS)C(=O)O` [linear III-5] (H-CRVFLCGC-OH), the “MIC for linear peptide” value in test [4] is > 560 µg/mL.
In the case of `CC(C)C[C@H](NC(=O)[C@@H](NC(=O)[C@H](Cc1ccccc1)NC(=O)[C@H](CC(C)C)NC(=O)[C@H](Cc1c[nH]c2ccccc12)NC(=O)[C@H](CS)NC(=O)[C@H](CCCNC(=N)N)NC(=O)[C@@H](N)CS)C(C)C)C(=O)O` [linear IV-N8] (H-CRCWLFVL-OH), the “MIC for linear peptide” value in test [2] was >1124 ^4 (>1.08) μg/ml.
For CRSQGLFK [linear III-6], the “MIC for linear peptide” value in test [4] is > 560 µg/mL.
